This passage reports surviving fraction results from the supplement of paper PMC6045584.

± gives the standard deviation of the averaged measurements.

Compound in one test: COc1cc([C@@H]2c3cc4c(cc3[C@@H](O[C@@H]3O[C@@H]5CO[C@@H](C)O[C@H]5[C@H](O)[C@H]3O)[C@H]3COC(=O)[C@H]23)OCO4)cc(OC)c1O [ETOPOSIDE]
The test can be described thus: surviving fraction relative to DMSO-only wells; higher = less growth inhibition. The settings on record: exposure time: 5 days. The essentials: (§1)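 At 250–500 cells per well in 384-well plates, log-phase tumour cell lines were seeded and, 24 hours on, exposed continuously for five days to inhibitors at 0.5, 1, 5, 10, 50, 100, 500 and 1000 nM. Viability readout was CellTiter-Glo luminescence, reported as surviving fraction normalised to the median of DMSO-only wells.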

Compound in test [1]: Cc1nc(Nc2n[nH]c3c2CN(C(=O)N[C@H](CN(C)C)c2ccccc2)C3(C)C)c2sccc2n1
The description is as above. The settings on record: exposure time: 5 days. A digest of the protocol:
as §1

With HCC38 BREAST, the surviving fraction with ETOPOSIDE (0.5 nM) was 1.28 ± 0.31; with ETOPOSIDE (1 nM) it was 1.19 ± 0.15; in the test with ETOPOSIDE (5 nM), 1.16 ± 0.18; with ETOPOSIDE (10 nM), 1.17 ± 0.1; with ETOPOSIDE (50 nM), 1.09 ± 0.054; in the test with ETOPOSIDE (100 nM), 1.21 ± 0.059. In addition, the surviving fraction with ETOPOSIDE (500 nM) turned out to be 0.53 ± 0.067; with ETOPOSIDE (1000 nM), 0.316 ± 0.026; in test [1] (0.5 nM), 1.03 ± 0.25; in test [1] (1 nM), 0.943 ± 0.17; in test [1] (5 nM) it was 0.291 ± 0.038; in test [1] (10 nM), 0.255 ± 0.029. For the same test system, the surviving fraction in test [1] (50 nM) turned out to be 0.182 ± 0.02; in test [1] (100 nM), 0.186 ± 0.034; in test [1] (500 nM), 0.178 ± 0.034; in test [1] (1000 nM), 0.0973 ± 0.011.
As to HCC70 BREAST, the surviving fraction in the test with ETOPOSIDE (0.5 nM) stood at 1.05 ± 0.078; in the test with ETOPOSIDE (1 nM), 0.995 ± 0.053; in the test with ETOPOSIDE (5 nM), 1.08 ± 0.044; with ETOPOSIDE (10 nM), 1.09 ± 0.1; with ETOPOSIDE (50 nM) it was 0.991 ± 0.13; with ETOPOSIDE (100 nM), 1.09 ± 0.09. The surviving fraction with ETOPOSIDE (500 nM) was found to be 0.785 ± 0.077; with ETOPOSIDE (1000 nM), 0.578 ± 0.016; in test [1] (0.5 nM), 0.996 ± 0.059; in test [1] (1 nM), 0.895 ± 0.096; in test [1] (5 nM) it was 0.275 ± 0.035; in test [1] (10 nM), 0.089 ± 0.014. Besides, the surviving fraction in test [1] (50 nM) turned out to be 0.0497 ± 0.0061; in test [1] (100 nM), 0.038 ± 0.003; in test [1] (500 nM) it was 0.032 ± 0.0089; in test [1] (1000 nM), 0.0307 ± 0.0061.
With HCC78 LUNG, the surviving fraction was 0.952 ± 0.064 with ETOPOSIDE (0.5 nM); 0.863 ± 0.27 with ETOPOSIDE (1 nM); 1 ± 0.082 in the test with ETOPOSIDE (5 nM); 0.925 ± 0.16 with ETOPOSIDE (10 nM); 0.841 ± 0.11 in the test with ETOPOSIDE (50 nM); 0.649 ± 0.099 with ETOPOSIDE (100 nM). Further, the surviving fraction worked out at 0.0883 ± 0.027 with ETOPOSIDE (500 nM); 0.089 ± 0.024 with ETOPOSIDE (1000 nM); 0.721 ± 0.087 in test [1] (0.5 nM); 0.967 ± 0.1 in test [1] (1 nM); 0.323 ± 0.047 in test [1] (5 nM); 0.454 ± 0.14 in test [1] (10 nM). Further, the surviving fraction in test [1] (50 nM) worked out at 0.263 ± 0.027; in test [1] (100 nM), 0.231 ± 0.03; in test [1] (500 nM), 0.203 ± 0.036; in test [1] (1000 nM), 0.21 ± 0.041.
As to HCC202 BREAST, the surviving fraction with ETOPOSIDE (0.5 nM) came out at 1.08 ± 0.35; in the test with ETOPOSIDE (1 nM), 1.11 ± 0.12; in the test with ETOPOSIDE (5 nM), 1.17 ± 0.066; with ETOPOSIDE (10 nM), 0.994 ± 0.18; with ETOPOSIDE (50 nM) it was 1.14 ± 0.18; in the test with ETOPOSIDE (100 nM), 1.14 ± 0.22. Also, the surviving fraction came out at 0.84 ± 0.31 in the test with ETOPOSIDE (500 nM); 0.724 ± 0.13 with ETOPOSIDE (1000 nM); 1.27 ± 0.26 in test [1] (0.5 nM); 1.12 ± 0.07 in test [1] (1 nM); 0.855 ± 0.24 in test [1] (5 nM); 0.754 ± 0.042 in test [1] (10 nM). Also, the surviving fraction in test [1] (50 nM) was 0.58 ± 0.028; in test [1] (100 nM) it was 0.501 ± 0.12; in test [1] (500 nM), 0.226 ± 0.038; in test [1] (1000 nM) it was 0.14 ± 0.049.
Regarding HCC1806 BREAST, the surviving fraction with ETOPOSIDE (0.5 nM) was found to be 0.883 ± 0.089; with ETOPOSIDE (1 nM) it was 1.04 ± 0.14; with ETOPOSIDE (5 nM), 1.05 ± 0.082; with ETOPOSIDE (10 nM), 1.03 ± 0.075; with ETOPOSIDE (50 nM), 1.14 ± 0.029; in the test with ETOPOSIDE (100 nM) it was 0.807 ± 0.067. Besides, the surviving fraction with ETOPOSIDE (500 nM) came out at 0.182 ± 0.021; in the test with ETOPOSIDE (1000 nM), 0.141 ± 0.0035; in test [1] (0.5 nM), 0.842 ± 0.06; in test [1] (1 nM), 0.521 ± 0.022; in test [1] (5 nM), 0.0733 ± 0.0085; in test [1] (10 nM), 0.0613 ± 0.0081. In addition, the surviving fraction turned out to be 0.0497 ± 0.0047 in test [1] (50 nM), 0.0377 ± 0.0055 in test [1] (100 nM), 0.024 ± 0.001 in test [1] (500 nM) and 0.0237 ± 0.00058 in test [1] (1000 nM).
Take HCC1954 BREAST: the surviving fraction with ETOPOSIDE (0.5 nM) worked out at 0.889 ± 0.22; with ETOPOSIDE (1 nM), 0.872 ± 0.095; with ETOPOSIDE (5 nM), 1.1 ± 0.064; with ETOPOSIDE (10 nM), 1.05 ± 0.074; with ETOPOSIDE (50 nM), 0.953 ± 0.054; in the test with ETOPOSIDE (100 nM), 0.654 ± 0.014. Also, the surviving fraction with ETOPOSIDE (500 nM) worked out at 0.512 ± 0.13; with ETOPOSIDE (1000 nM), 0.34 ± 0.0014; in test [1] (0.5 nM), 1 ± 0.05; in test [1] (1 nM), 0.88 ± 0.12; in test [1] (5 nM), 0.43 ± 0.044; in test [1] (10 nM), 0.466 ± 0.0085. Further, the surviving fraction is 0.487 ± 0.023 in test [1] (50 nM), 0.493 ± 0.018 in test [1] (100 nM), 0.428 ± 0.028 in test [1] (500 nM) and 0.253 ± 0.035 in test [1] (1000 nM).
As for HCT15 LARGE INTESTINE, the surviving fraction was 1.01 ± 0.037 with ETOPOSIDE (0.5 nM); 0.981 ± 0.03 in the test with ETOPOSIDE (1 nM); 1.01 ± 0.041 with ETOPOSIDE (5 nM); 1.04 ± 0.046 with ETOPOSIDE (10 nM); 1.007 ± 0.0047 with ETOPOSIDE (50 nM); 1.05 ± 0.033 with ETOPOSIDE (100 nM). The surviving fraction in the test with ETOPOSIDE (500 nM) is 0.704 ± 0.095; in the test with ETOPOSIDE (1000 nM), 0.328 ± 0.037; in test [1] (0.5 nM), 0.998 ± 0.043; in test [1] (1 nM), 1.019 ± 0.009; in test [1] (5 nM) it was 1.04 ± 0.03; in test [1] (10 nM), 1.04 ± 0.011. The surviving fraction is 0.869 ± 0.061 in test [1] (50 nM), 1.02 ± 0.036 in test [1] (100 nM), 0.172 ± 0.013 in test [1] (500 nM) and 0.428 ± 0.023 in test [1] (1000 nM).
In the case of HELA CERVIX, the surviving fraction with ETOPOSIDE (0.5 nM) worked out at 1.1 ± 0.033; with ETOPOSIDE (1 nM), 1.1 ± 0.023; in the test with ETOPOSIDE (5 nM), 1.04 ± 0.031; with ETOPOSIDE (10 nM), 1.04 ± 0.015; with ETOPOSIDE (50 nM) it was 1.14 ± 0.063; with ETOPOSIDE (100 nM) it was 1.18 ± 0.059. Also, the surviving fraction came out at 0.301 ± 0.044 with ETOPOSIDE (500 nM); 0.182 ± 0.0037 with ETOPOSIDE (1000 nM); 1.1 ± 0.061 in test [1] (0.5 nM); 1.11 ± 0.056 in test [1] (1 nM); 0.936 ± 0.026 in test [1] (5 nM); 0.741 ± 0.02 in test [1] (10 nM). In addition, the surviving fraction in test [1] (50 nM) stood at 0.4922 ± 0.0018; in test [1] (100 nM) it was 0.478 ± 0.0081; in test [1] (500 nM), 0.406 ± 0.016; in test [1] (1000 nM), 0.341 ± 0.026.
